Data published in PubChem BioAssay (NCI).
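Grown in 96-well plates, cells were treated for 48 hours with each compound at five concentrations. Insufficient inhibition: endpoint recorded as highest concentration tested. Here, GI50 denotes the concentration required for 50% inhibition of growth. TGI: concentration producing complete growth inhibition.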

What follows are compounds tested on CCRF-CEM leukemia (assay: DTP human tumour cell line panel, 48 h).

SMILES	TGI
NC1C2(CCCCCC2)NC(=O)C12CCCCCC2 (configuration not stated)	> 100 µM
COC(=O)c1cc2c(c(C(=O)OC)c1O)C(=O)C=CC2=O	4.31 µM

These compounds were tested on UO-31 renal (assay: DTP human tumour cell line panel, 48 h).

SMILES	TGI	GI50
CCc1nc2ccccc2c(=O)n1/N=C(\N=Nc1ccc(Cl)cc1)c1ccccc1Cl	69.9 µM	–
CSc1ccc(/C=C2/C[N+](C)(C)C/C(=C/c3ccc(SC)cc3)C2=O)cc1	> 100 µM	–
CCOCNC(=O)N(COCC)COCC	> 100 µM	–
COC(=O)CSc1n[nH]c(-c2ccc(O)c([N+](=O)[O-])c2)n1	> 100 µM	–
NC1C2(CCCCCC2)NC(=O)C12CCCCCC2 (configuration not stated)	> 100 µM	–
COC(=O)c1cc2c(c(C(=O)OC)c1O)C(=O)C=CC2=O	> 56.9 µM	> 9.1 µM

These compounds were tested on RXF-631 renal (assay: DTP human tumour cell line panel, 48 h).

SMILES	TGI	GI50
CCc1nc2ccccc2c(=O)n1/N=C(\N=Nc1ccc(Cl)cc1)c1ccccc1Cl	> 100 µM	–
CSc1ccc(/C=C2/C[N+](C)(C)C/C(=C/c3ccc(SC)cc3)C2=O)cc1	> 100 µM	–
NCC(=O)NC(CCCC(NC(=O)CN)P(=O)(O)O)P(=O)(O)O (configuration not stated)	> 100 µM	–
CCOCNC(=O)N(COCC)COCC	> 100 µM	–
COC(=O)CSc1n[nH]c(-c2ccc(O)c([N+](=O)[O-])c2)n1	> 100 µM	–
NC1C2(CCCCCC2)NC(=O)C12CCCCCC2 (configuration not stated)	> 100 µM	–
COC(=O)c1cc2c(c(C(=O)OC)c1O)C(=O)C=CC2=O	> 71.2 µM	> 9.1 µM

These compounds were tested on HOP-92 NSCLC (assay: DTP human tumour cell line panel, 48 h).

SMILES	TGI
CCc1nc2ccccc2c(=O)n1/N=C(\N=Nc1ccc(Cl)cc1)c1ccccc1Cl	64.9 µM
CSc1ccc(/C=C2/C[N+](C)(C)C/C(=C/c3ccc(SC)cc3)C2=O)cc1	42.1 µM
NCC(=O)NC(CCCC(NC(=O)CN)P(=O)(O)O)P(=O)(O)O (configuration not stated)	> 100 µM
COC(=O)CSc1n[nH]c(-c2ccc(O)c([N+](=O)[O-])c2)n1	> 100 µM
NC1C2(CCCCCC2)NC(=O)C12CCCCCC2 (configuration not stated)	> 100 µM
COC(=O)c1cc2c(c(C(=O)OC)c1O)C(=O)C=CC2=O	> 21.9 µM

What follows are compounds tested on NCI-H460 lung (assay: DTP human tumour cell line panel, 48 h).

SMILES	TGI	GI50
CCc1nc2ccccc2c(=O)n1/N=C(\N=Nc1ccc(Cl)cc1)c1ccccc1Cl	> 100 µM	–
NCC(=O)NC(CCCC(NC(=O)CN)P(=O)(O)O)P(=O)(O)O (configuration not stated)	> 100 µM	–
COC(=O)CSc1n[nH]c(-c2ccc(O)c([N+](=O)[O-])c2)n1	> 100 µM	–
NC1C2(CCCCCC2)NC(=O)C12CCCCCC2 (configuration not stated)	> 100 µM	–
COC(=O)c1cc2c(c(C(=O)OC)c1O)C(=O)C=CC2=O	> 74.3 µM	> 9.1 µM

What follows are compounds tested on LOX IMVI melanoma (assay: DTP human tumour cell line panel, 48 h).

SMILES	TGI	GI50
CCc1nc2ccccc2c(=O)n1/N=C(\N=Nc1ccc(Cl)cc1)c1ccccc1Cl	> 100 µM	–
CCOCNC(=O)N(COCC)COCC	> 100 µM	–
COC(=O)CSc1n[nH]c(-c2ccc(O)c([N+](=O)[O-])c2)n1	> 100 µM	–
NC1C2(CCCCCC2)NC(=O)C12CCCCCC2 (configuration not stated)	> 100 µM	–
COC(=O)c1cc2c(c(C(=O)OC)c1O)C(=O)C=CC2=O	> 56.9 µM	> 9.1 µM

Each compound was assayed on OVCAR-8 ovarian (assay: DTP human tumour cell line panel, 48 h).

SMILES	TGI	GI50
CCc1nc2ccccc2c(=O)n1/N=C(\N=Nc1ccc(Cl)cc1)c1ccccc1Cl	> 100 µM	–
NCC(=O)NC(CCCC(NC(=O)CN)P(=O)(O)O)P(=O)(O)O (configuration not stated)	> 100 µM	–
CCOCNC(=O)N(COCC)COCC	> 100 µM	–
COC(=O)CSc1n[nH]c(-c2ccc(O)c([N+](=O)[O-])c2)n1	> 100 µM	–
NC1C2(CCCCCC2)NC(=O)C12CCCCCC2 (configuration not stated)	> 100 µM	–
COC(=O)c1cc2c(c(C(=O)OC)c1O)C(=O)C=CC2=O	> 40.4 µM	> 9.1 µM

The compounds below were run on EKVX NSCLC (assay: DTP human tumour cell line panel, 48 h).

SMILES	TGI
CSc1ccc(/C=C2/C[N+](C)(C)C/C(=C/c3ccc(SC)cc3)C2=O)cc1	35.1 µM
NCC(=O)NC(CCCC(NC(=O)CN)P(=O)(O)O)P(=O)(O)O (configuration not stated)	> 100 µM
CCOCNC(=O)N(COCC)COCC	> 100 µM
COC(=O)CSc1n[nH]c(-c2ccc(O)c([N+](=O)[O-])c2)n1	> 100 µM
NC1C2(CCCCCC2)NC(=O)C12CCCCCC2 (configuration not stated)	> 100 µM
